Laboratory results reported in US20060004086A1, “Method of reducing Abeta42 and treating diseases” (Mayo Foundation for Medical Education and Research, priority 2000, published 2006).
Where two headings read alike, the source gives them in different places.

How the values were obtained:
[1] = tested on: Notch intramembrane cleavage; test: Notch intramembrane cleavage and NICD formation in HEK293 cells; assay type: cell-based
Description: Two Notch-encoding vector constructs were used in examining Notch processing. These were a construct expressing a myc-tagged NH2-terminal truncated Notch-1 polypeptide (NotchΔEMV), and a construct expressing only the Notch intracellular cytoplasmic domain (NICD) (see Kopan et al. (1996) Proc Natl Acad Sci USA 93:1683-8). In the construct expressing a myc-tagged NH2-terminal truncated Notch-1 polypeptide, the start codon, a methionine at position 1726, was mutated to a valine to eliminate translation initiation.
Notch intramembrane cleavage and formation of NICD were analyzed in kidney HEK293 cells. The myc-tagged NotchΔEMV construct encoding a constitutively cleaved Notch variant was transiently transfected into HEK293 cells. […] Then they were pulse labeled with ^35S-methionine for thirty minutes and chased for two hours. Cell lysates were prepared and subjected to immunoprecipitation with monoclonal antibody 9E10. Immunoprecipitated proteins were subjected to SDS-PAGE and phosphor imaging analyses.

Aβ42 secretion [2] = test: Primary in vitro screen, CHO-APP695NL,I,his cells, end-specific Aβ40 and Aβ42 ELISAs; assay type: cell-based, Chinese hamster; conditions: for activity at 10 µM / activity at 100 µM: Cricetulus griseus, 6 h
Experimental: Aβ40 and Aβ42 levels in culture supernatants were determined for each time points using ELISA.
In a primary screen, the effects of NSAIDs on Aβ42 secretion by a CHO cell line that expressed APP(CHO-APP695NL,I,his) were examined. Duplicate cell cultures were treated with (a) a vehicle, (b) 10 μM of NSAID, or (c) 100 μM of NSAID.
To determine Aβ40 and Aβ42 levels, six-hour culture supernatants taken from cells grown in a single well of a twenty-four-well plate were used in end-specific Aβ40 and Aβ42 ELISAs (Suzuki, et al. (1994) Sci 264:[…]). Aβ40 and Aβ42 levels of cultures treated with NSAID were compared with those of cultures treated with the vehicle alone. […] NSAIDs that caused either selective reduction of Aβ42 levels or reduction in both Aβ40 and Aβ42 levels are subjected to a secondary screen.

Aβ42 secretion [3] = test: Aβ40/Aβ42 ELISA of culture supernatants, CHO cells expressing APP751 and PS-1 mutant M146L; assay type: cell-based, Chinese hamster
Experimental: (§1) Cell cultures were maintained in standard cell culture media supplemented with 10% fetal bovine serum and 100 U/mL penicillin/streptomycin (Life Technologies Inc., Germany).
(§2) For analyses of Aβ secretion, APP processing, and notch cleavage, cells were cultured in serum-containing media and pretreated overnight with a specific NSAID. The next day, media were changed and cultures were treated with the same NSAID for another 24 hours.
(§3) Aβ was detected by sandwich enzyme-linked immunosorbent assay (ELISA) as described by Murphy et al. (2000) J Biol Chem 275:26277-84. Following NSAID treatment, culture supernatants were collected, and cell debris was removed by centrifugation. Complete protease inhibitor cocktail (Roche Molecular Biochemicals, IN, USA) was added to the media and Aβ40 and Aβ42 levels were quantified using end-specific Aβ ELISAs. All measurements were performed in duplicate.
(§4) Levels of Aβ40 and Aβ42 in culture supernatants were analyzed using ELISA. […] Aβ42/Aβ40 ratios and total Aβ levels (i.e., the sum of Aβ40 and Aβ42 values) were normalized to values obtained from DMSO-treated cells. Results shown were averages of two or three experiments performed in duplicate.
Aβ40 and Aβ42 levels in culture supernatants were analyzed using ELISA as described in Example 3. […] Aβ42/Aβ40 ratios and total Aβ levels were normalized to values obtained from ethanol-treated cells. Results shown were averages of two or three experiments, each performed in duplicate.

Aβ42 secretion [4] = test: Aβ secretion in kidney HEK293 cells; assay type: cell-based; conditions: data not shown
Experimental: as §1, §2, §3, §4

Aβ species [5] = test: Bicine/Urea Aβ western blot, CHO cells expressing APP751 and mutant PS-1; assay type: cell-based, Chinese hamster; conditions: 60 μM or 80 μM, compared with DMSO
Experimental: Bicine/Urea Aβ western blot analysis was performed as described by Wiltfang et al. (1997) Electrophoresis 18:527-32. A 1 mL amount of culture supernatant was subjected to immunoprecipitation using monoclonal antibody 26D6. Immunoprecipitates were mixed with sample buffer and heated to 95° C. for five minutes. Eluant samples were separated on Bicine/Urea gels, then transferred to nitrocellulose membranes, and probed with antibody 26D6. Standard Aβ1-40, Aβ1-42 and Aβ1-38 peptides (Sigma, MO, USA) were used for identification of the Aβ species.
AP polypeptides were immunoprecipitated from culture supernatants of CHO cells expressing APP751 and mutant PS-1. Immunoprecipitates were separated on an SDS-urea gel system that can resolve individual Aβ species (see Wiltfang et al. (1997) Electrophoresis 18:527-32). Standard Aβ1-38, Aβ1-40, and Aβ1-42 peptides were included for identification of different Aβ species.

Aβ42 secretion [6] = test: Aβ ELISA, primary fibroblasts from COX-1/COX-2 double-knockout mice expressing APP695; assay type: cell-based; conditions: primary mouse embryonic fibroblasts; data not shown
Description: as §1, §3

CHO or HS683 cells = test: NSAID cell toxicity, MTT-assay or [3H]-thymidine incorporation assay; conditions: concentrations up to 100 μM; data not shown
Description: NSAID toxicity in CHO or HS683 cells was examined using standard MTT-assay (3-(4,5-Dimethyl-2-thiazolylyl)-2,5-diphenyl-2H-tetrazolium Bromide) or [^3H]-thymidine incorporation assay.

[7] = plasma concentration of the drug; cited from earlier work
Aβ species [8] = test: Immunoprecipitation/mass spectrometry of secreted Aβ species, CHO cells expressing APP751; assay type: cell-based, Chinese hamster
Experimental: Secretion of Aβ peptides was analyzed using immunoprecipitation/mass spectrometry as described by Wang et al. (1996) J Biol Chem 271:31894-902. Briefly, 1 mL amount of culture supernatant was subjected to immunoprecipitation using the monoclonal antibody 4G8 (Senetek, CA, USA). Molecular masses and concentrations of Aβ peptides were measured using a matrix assisted laser desorption/ionization time-of-flight (MALDI-TOF) mass spectrometer. To compare the concentrations of individual Aβ species in culture supernatants, synthetic Aβ12-28 peptides (Sigma, MO, USA) were added to the supernatant samples as internal standards and relative peak heights were calculated.
To examine Aβ species secreted by cells treated with sulindac sulfide, immunoprecipitation and mass spectrometry analyses were performed. […] Various Aβ species including Aβ1-42, Aβ1-39, Aβ1-38, and Aβ1-37 were quantified. […] Duplicate measurements were used in generating the bar graph. […] Increases in Aβ1-38 levels were dose-dependent.

APP processing = test: Western blot of APP, APP CTFs and sAPP, CHO cells expressing APP751; assay type: cell-based, Chinese hamster
Description: Expression of holo-APP and APP C-terminal fragments (CTFs) was examined by Western blot analysis using antibody CT-15. APP secretion was examined by Western blotting using a mixture of 5A3/IG7 antibodies. APP turnover was examined by pulse labeling of CHO cells with 150 μCi [^35S]-methionine for fifteen minutes followed by a cold chase step for up to four hours. Cell lysates were immunoprecipitated with antibody CT-15, subjected to SDS-PAGE, and analyzed by phosphor imaging.
Cell lysates were prepared, and steady-state APP levels were examined using 4-12% gradient-gel electrophoresis and western blotting using the polyclonal antibody CT15.

COX-1/COX-2 = conditions: cited from earlier work
Aβ42 secretion [9] = test: Non-selective and selective COX-inhibitors tested for effect on Aβ42 levels in cell cultures (Table 1 summary); assay type: cell-based; conditions: for Aβ42/Aβ40 ratio: effect up to the highest conc. tested listed per drug in Table 1
Experimental: All measurements were performed in duplicate.
(§5) Aβ40 and Aβ42 levels in cell culture supernatants were analyzed using ELISA. Aβ42/Aβ40 ratios and total Aβ levels were normalized to values obtained from DMSO-treated cultures. […] NSAIDs were verified using NMR and mass spectrometry.

Aβ42 secretion [10] = test: Aβ40/Aβ42 ELISA of culture supernatants, CHO cells expressing APP751; assay type: cell-based, Chinese hamster
Experimental: as §1, §2, §3
The effect of sulindac sulfone on Aβ42 secretion was examined. Sulindac sulfone is an oxidation product of the pro-drug sulindac. […] Cell cultures were treated with increasing concentrations of sulindac sulfone. Aβ40 and Aβ42 levels in culture supernatants were analyzed using ELISA.
as §5

[11] = cell cultures, cell line and concentration not stated
[12] = six-hour culture supernatants, read-out: % Control % Aβ42
[13] = six-hour culture supernatants, read-out: % Control Aβ40
[14] = six-hour culture supernatants, read-out: % Control Aβ42
[15] = CHO cells expressing APP751, concentrations up to 400 μM
[16] = concentration not given, six-hour culture supernatants

CSc1ccc(/C=C2/C(C)=C(CC(=O)O)c3cc(F)ccc32)cc1 [Sulindac sulfide, sulindac sulfide]
Notch cleavage and NICD formation ([1]; 125 μM for 36 hours, HEK293 cells transfected with NotchΔEMV): did not impair Notch cleavage and NICD formation
activity at 10 µM (Aβ42 secretion [2]; read-out: % Control % Aβ42): 65%
activity at 10 µM (Aβ42 secretion [2]; read-out: % Control Aβ40): 97%
activity at 10 µM (Aβ42 secretion [2]; read-out: % Control Aβ42): 57%
total Aβ level (sum of Aβ40 and Aβ42) (Aβ42 secretion [3]; sulindac sulfide concentrations of FIG. 1): No significant reduction
Aβ42 secretion (Aβ42 secretion [4]): reduced Aβ42 secretion
immuno-reactive band corresponding to Aβ1-38 (Aβ species [5]): equivalent increase in the intensity
immuno-reactive band corresponding to Aβ42 (Aβ species [5]): reduction in the intensity
Aβ42 secretion (Aβ42 secretion [6]): reduced Aβ42 secretion
cell toxicity (CHO or HS683 cells): No cell toxicity was observed
Plasma [7]: 14.6 µM
Aβ42 secretion (mass spectrometry) (Aβ species [8]; 75-100 μM): strong reduction
levels of Aβ40 (mass spectrometry) (Aβ species [8]; 75-100 μM): largely unaffected
increases in Aβ1-38 levels (Aβ species [8]; 75 or 100 μM): dose-dependent
other Aβ peptide levels (Aβ species [8]; compared with DMSO): did not vary consistently
CTF levels (western blot, CT15) (APP processing; compared with DMSO): nor an increase in CTF levels was observed
steady-state APP levels (western blot, CT15) (APP processing; compared with DMSO): neither a change in APP levels
secretion of the APP ectodomain (sAPP) (APP processing; increasing concentrations, 5A3/1G7 antibodies): no significant change

CS(=O)(=O)Nc1ccc([N+](=O)[O-])cc1OC1CCCCC1 [NS-398]
COX-1/COX-2 selectivity# (1 = equal activity) (COX-1/COX-2): .07
activity at 10 µM (Aβ42 secretion [2]; 10 μM, six-hour culture supernatants, read-out: % Control % Aβ42): 132%
activity at 10 µM (Aβ42 secretion [2]; 10 μM, six-hour culture supernatants, read-out: % Control Aβ40): 101%
activity at 10 µM (Aβ42 secretion [2]; 10 μM, six-hour culture supernatants, read-out: % Control Aβ42): 146%
Aβ42/Aβ40 ratios (Aβ42 secretion [9]; [11]): did not affect
total Aβ levels (Aβ42 secretion [9]; [11]): did not affect
Aβ42/Aβ40 ratio (Aβ42 secretion [9]): no effect

O=C(O)Cc1ccccc1Nc1c(Cl)cccc1Cl [Diclofenac]
activity at 100 µM (Aβ42 secretion [2]; [12]): 100%
activity at 100 µM (Aβ42 secretion [2]; [13]): 88%
activity at 100 µM (Aβ42 secretion [2]; [14]): 87%
total Aβ levels (Aβ42 secretion [9]; [11]): did not affect
Plasma [7]: 6.1 µM

CC1=C(CC(=O)O)c2cc(F)ccc2/C1=C\c1ccc(S(C)(=O)=O)cc1 [Sulindac Sulfone, sulindac sulfone]
Aβ42/Aβ40 ratios (Aβ42 secretion [10]; [15]): no changes in Aβ42/Aβ40 ratios were observed
% Control % Aβ42 (Aβ42 secretion [2]; [16]): 92%
% Control Aβ40 (Aβ42 secretion [2]; [16]): 109%
% Control Aβ42 (Aβ42 secretion [2]; [16]): 97%

CS(=O)(=O)c1ccc(C2=C(c3ccccc3)C(=O)OC2)cc1 [Rofecoxib, rofecoxib]
COX-1/COX-2 selectivity# (1 = equal activity) (COX-1/COX-2): .001
Aβ42/Aβ40 ratio (Aβ42 secretion [10]; CHO cells expressing APP751, 20 μM): not seen
Aβ42/Aβ40 ratio (Aβ42 secretion [9]): no effect
Plasma [7]: 0.003 µM

COc1ccc2cc([C@H](C)C(=O)O)ccc2c1 [Naproxen, naproxen]
total Aβ levels (Aβ42 secretion [10]; [15]): did not affect total Aβ levels
activity at 100 µM (Aβ42 secretion [2]; [12]): 104%
activity at 100 µM (Aβ42 secretion [2]; [13]): 107%
activity at 100 µM (Aβ42 secretion [2]; [14]): 112%

CC(=O)Oc1ccccc1C(=O)O [Aspirin, Acetylsalicylic acid]
COX-1/COX-2 selectivity# (1 = equal activity) (COX-1/COX-2): 166
Aβ42 secretion (Aβ42 secretion [10]; concentrations of up to 3 mM, data not shown): no reductions in Aβ42 secretion were observed
activity at 100 µM (Aβ42 secretion [2]; [12]): 104%
activity at 100 µM (Aβ42 secretion [2]; [13]): 93%
activity at 100 µM (Aβ42 secretion [2]; [14]): 99%
Aβ42/Aβ40 ratio (Aβ42 secretion [9]): no effect
Plasma [7]: 111 µM

COc1ccc2c(c1)c(CC(=O)O)c(C)n2C(=O)c1ccc(Cl)cc1 [Indomethacin, indomethacin]
inhibition of Notch cleavage ([1]; 150 μM, data not shown): did not cause
activity at 100 µM (Aβ42 secretion [2]; [12]): 68%
activity at 100 µM (Aβ42 secretion [2]; [13]): 101%
activity at 100 µM (Aβ42 secretion [2]; [14]): 69%
total Aβ levels (Aβ42 secretion [3]; concentrations up to 100 μM): not significantly affected
accumulation of APP-CTFs (APP processing; 150 μM, data not shown): did not cause
